Data published in patent US8153791B2, “Substituted pyrimidinyl oxime kinase inhibitors” (Janssen Pharmaceutica N.V., priority 2005, dated 2012).
Read-outs that look alike come from different tables or passages of the source.

How the values were obtained:
[1] = test system: HeLa cervical adenocarcinoma; test: In vitro cell proliferation inhibition, HeLa; format: cell-based; conditions: Homo sapiens, read-out: HeLa IC50
Description: The ability of a test compound to inhibit unregulated in vitro cell proliferation may be determined by measuring incorporation of ^14C-labelled thymidine into newly synthesized DNA within cell lines derived from carcinomas originating from several tissues. Accordingly, the effect of a test compound on proliferation of cells with a variety of phenotypes may be determined.
Carcinoma cell lines used include the HeLa cervical adenocarcinoma from the American Type Culture Collection (ATCC Cat. #CCL2), SK-OV-3 ovarian carcinoma (ATCC Cat. #HTB-77), MCF-7 breast carcinoma (ATCC Cat. #HTB-22), BT474 breast carcinoma (ATCC Cat. #HTB-20), SKBR3 breast carcinoma (ATCC Cat. #HTB-30), A431 epidermoid carcinoma (ATCC Cat. #CRL-1555) and NCI-N87 gastric carcinoma (ATCC Cat. #CRL-5822).
The carcinoma cells are trypsinized and counted. The cells (3000-8000 count) are added to each well of a 96-well CytoStar tissue culture treated scintillating microplate (Amersham #RPNQ0160) in complete medium (100 μL) and the plate is then incubated in complete medium for 24 hrs at 37° C. in an inert atmosphere containing 5% CO2.
Test compound (1 μL) in 100% DMSO is added to the plate test-wells with DMSO only added to control-wells. The plate is incubated in complete medium for a second 24 hr period at 37° C. in an atmosphere containing 5% CO2.
An aliquot of a solution of Methyl ^14C-thymidine (56 mC/mmol) (NEN #NEC568 or Amersham #CFA532) and complete medium (20 μL to provide 0.2 μCi/well) is then added to each well and the plate is incubated for a third 24 hr period at 37° C. in an atmosphere containing 5% CO2.
The plate contents are then discarded, the plate is washed twice with PBS (200 μL) and then PBS (200 μL) is added to each well. The plate is sealed and the degree of methyl ^14C-thymidine incorporation is quantified on a Packard Top Count.
Cell proliferation of the Hela cell line was measured using the ATP-Lite method as described in the ATP Lite Kit (Perkin-Elmer Kit Number 6106941) or the C^14 method as described above. Cell proliferation of the other cell lines was measured using the C^14 method.
The term “NT” means that the compound indicated was not tested in a particular cell line. The lack of such testing is not intended to imply a belief that the compound is not otherwise active in a particular cell line or any other cell line not tested.

EGFR = molecular target: T1, EGFR (Homo sapiens, UniProt P00533); test: EGFR Kinase Assay; format: biochemical; conditions: for inhibition at 2 µM: test concentration of 2 μM;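 on all read-outs here: recombinant GST-tagged EGFR expressed in Sf9 cells, phosphorylating biotinylated polyGluTyr with γ-33P ATP on Streptavidin Flashplates, 1 h at 30 °C, scintillation counting, inhibition relative to plate maximum and minimum signals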
T1 construct: The intracellular portion of EGFR started at nucleotide 2189 (corresponding to amino acid 667) and ended at the termination codon; made in house; host or cells: Sf9 insect cells (baculovirus)
T1 sequence (P00533 669-1210 limits assumed): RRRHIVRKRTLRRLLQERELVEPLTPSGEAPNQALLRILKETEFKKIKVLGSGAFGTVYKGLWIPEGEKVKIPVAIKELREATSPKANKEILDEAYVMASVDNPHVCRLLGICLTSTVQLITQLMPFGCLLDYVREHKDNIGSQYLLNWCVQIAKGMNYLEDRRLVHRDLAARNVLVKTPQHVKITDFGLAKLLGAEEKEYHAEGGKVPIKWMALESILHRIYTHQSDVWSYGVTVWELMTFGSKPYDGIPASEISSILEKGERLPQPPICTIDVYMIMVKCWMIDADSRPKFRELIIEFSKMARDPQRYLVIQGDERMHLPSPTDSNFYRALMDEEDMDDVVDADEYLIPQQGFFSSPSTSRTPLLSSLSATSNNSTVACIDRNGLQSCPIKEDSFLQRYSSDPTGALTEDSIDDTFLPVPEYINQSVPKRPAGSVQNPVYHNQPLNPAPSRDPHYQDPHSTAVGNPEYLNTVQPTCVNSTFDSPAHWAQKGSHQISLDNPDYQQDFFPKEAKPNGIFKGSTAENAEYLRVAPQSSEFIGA

HER-2 = molecular target: T2, HER-2 (Homo sapiens, UniProt P04626); test: HER-2 Kinase Assay; format: biochemical; conditions: read-out: HER2 IC50;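 further: HER2 kinase reaction read by scintillation counting, inhibition scaled between maximum and minimum signals set on each plate, IC50 from inhibition against log concentration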
T2 construct: purchased Proqinase (Freiburg, Germany)
T2 sequence (P04626 679-1255): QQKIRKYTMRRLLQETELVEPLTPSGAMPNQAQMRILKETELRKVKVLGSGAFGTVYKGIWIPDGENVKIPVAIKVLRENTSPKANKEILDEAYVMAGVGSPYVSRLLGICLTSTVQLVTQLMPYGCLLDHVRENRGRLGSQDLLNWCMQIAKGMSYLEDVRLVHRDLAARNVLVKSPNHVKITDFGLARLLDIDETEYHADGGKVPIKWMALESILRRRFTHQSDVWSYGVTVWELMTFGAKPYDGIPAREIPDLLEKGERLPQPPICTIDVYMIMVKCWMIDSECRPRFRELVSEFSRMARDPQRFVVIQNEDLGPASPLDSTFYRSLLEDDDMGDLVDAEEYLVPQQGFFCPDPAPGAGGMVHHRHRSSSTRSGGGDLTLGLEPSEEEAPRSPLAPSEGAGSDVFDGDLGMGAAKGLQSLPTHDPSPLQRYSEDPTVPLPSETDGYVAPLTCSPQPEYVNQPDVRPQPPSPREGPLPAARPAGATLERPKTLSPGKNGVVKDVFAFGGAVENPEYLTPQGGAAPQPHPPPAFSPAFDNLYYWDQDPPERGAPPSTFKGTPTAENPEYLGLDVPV

[2] = HeLa cell line, ATP-Lite method or C14 thymidine method

SMILES	IC50 [1, 2] [µM]	IC50 (EGFR) [µM]	IC50 (HER-2) [µM]	also measured
Nc1ncnc(Nc2ccc(NC(=O)c3ccccc3)cc2)c1/C=N/OCCN1CCOCC1 [Cpd 107]	100			
CO/N=C/c1c(N)ncnc1Nc1ccc(Cl)cc1F [Cpd 80]	100	0.3		
CO/N=C\c1c(N)ncnc1Nc1cc(O)c(Cl)cc1F [Cpd 90]	10			
C[C@H](Nc1ncnc(N)c1/C=N/OCCN1CCCCC1)c1ccccc1 [Cpd 106]	10			
C[C@H](Nc1ncnc(N)c1/C=N/OCCN1CCOCC1)c1ccccc1 [Cpd 103]	10			
Nc1ncnc(Nc2ccc3c(cnn3Cc3cccc(F)c3)c2)c1/C=N/OCCCO [Cpd 85, (5E)-4-amino-6-[1-(3-fluoro-benzyl)-1H-indazol-5-ylamino]-pyrimidine-5-carbaldehyde O-(3-hydroxy-propyl)-oxime]		0.02	0.02	IC50 ([1]; HeLa): 15.6 µM
Nc1ncnc(Nc2ccc3c(ccn3Cc3cccc(F)c3)c2)c1/C=N/O [Cpd 88, (5E)-4-amino-6-[1-(3-fluoro-benzyl)-1H-indol-5-ylamino]-pyrimidine-5-carbaldehyde oxime]	10.9	0.009	0.02	
CO/N=C\c1c(N)ncnc1Nc1ccc(Cl)cc1F [Cpd 81]	10			
CO/N=C\c1c(N)ncnc1Nc1ccc(Br)cc1F [Cpd 83]	3.6			
CO/N=C/c1c(N)ncnc1Nc1ccc(OCc2cc(F)cc(F)c2)c(Cl)c1 [Cpd 97, (5E)-4-amino-6-[3-chloro-4-(3,5-difluoro-benzyloxy)-phenylamino]-pyrimidine-5-carbaldehyde O-methyl-oxime]	100		1	
COCCO/N=C/c1c(N)ncnc1Nc1ccc(OCc2ccccc2)c(Cl)c1 [Cpd 71, (5E)-4-amino-6-(4-benzyloxy-3-chloro-phenylamino)-pyrimidine-5-carbaldehyde O-(2-methoxy-ethyl)-oxime]		0.01	0.05	
CO/N=C/c1c(N)ncnc1Nc1cnc(NC(=O)c2ccccc2)nc1 [Cpd 110]	33.1			
CON=Cc1c(N)ncnc1Nc1ccc(Oc2ccccc2)nc1 [Cpd 128, 4-amino-6-(6-phenoxy-pyridin-3-ylamino)-pyrimidine-5-carbaldehyde O-methyl-oxime]			1.82	inhibition at 2 µM (EGFR): 45%
CCO/N=C/c1c(N)ncnc1Nc1ccc(OCc2ccccc2)c(Cl)c1 [Cpd 37, (5E)-4-amino-6-(4-benzyloxy-3-chloro-phenylamino)-pyrimidine-5-carbaldehyde O-ethyl-oxime]		0.02	0.09	
Nc1ncnc(Nc2ccc(NC(=O)c3ccccc3)cc2)c1/C=N/O [Cpd 105]	100			
CON=Cc1c(N)ncnc1Nc1ccc(N2CCOCC2)nc1 [Cpd 129, 4-amino-6-(6-morpholin-4-yl-pyridin-3-ylamino)-pyrimidine-5-carbaldehyde O-methyl-oxime]			> 100	inhibition at 2 µM (EGFR): 1%
CO/N=C/c1c(N)ncnc1Nc1ccc(Br)cc1F [Cpd 82]	100	0.2		
Nc1ncnc(Nc2ccc3c(cnn3Cc3cccc(F)c3)c2)c1/C=N/Oc1ccccc1 [Cpd 65, (5E)-4-amino-6-[1-(3-fluoro-benzyl)-1H-indazol-5-ylamino]-pyrimidine-5-carbaldehyde O-phenyl-oxime]		0.04	0.2	
CO/N=C/c1c(N)ncnc1Nc1cc(O)c(Cl)cc1F [Cpd 89]	10			
CCNc1ncnc(Nc2ccc(OCc3cccc(F)c3)c(Cl)c2)c1/C=N/OCC [Cpd 43, (5E)-4-[3-chloro-4-(3-fluoro-benzyloxy)-phenylamino]-6-ethylamino-pyrimidine-5-carbaldehyde O-ethyl-oxime]		1.4	10.4	

SMILES	IC50 [1, 2] [µM]	IC50 (EGFR) [µM]	IC50 (HER-2) [µM]	also measured
COc1ccc(CO/N=C/c2c(N)ncnc2Nc2ccc3c(cnn3Cc3cccc(F)c3)c2)cc1 [Cpd 44, (5E)-4-amino-6-[1-(3-fluoro-benzyl)-1H-indazol-5-ylamino]-pyrimidine-5-carbaldehyde O-(4-methoxy-benzyl)-oxime]		0.07	1.6	
C=CCO/N=C/c1c(N)ncnc1Nc1ccc2c(cnn2Cc2cccc(F)c2)c1 [Cpd 11, (5E)-4-amino-6-[1-(3-fluoro-benzyl)-1H-indazol-5-ylamino]-pyrimidine-5-carbaldehyde O-allyl-oxime]		0.008	0.01	
C[C@H](Nc1ncnc(N)c1/C=N/O)c1ccccc1 [Cpd 100, (5E)-4-amino-6-[(1S)-1-phenyl-ethylamino]-pyrimidine-5-carbaldehyde oxime]	10	0.02		
CCO/N=C/c1c(N)ncnc1Nc1ccc2c(cnn2Cc2cccc(C#N)c2)c1 [Cpd 51, 3-{5-[6-amino-(5E)-5-(ethoxyimino-methyl)-pyrimidin-4-ylamino]-indazol-1-ylmethyl}-benzonitrile]		0.04	0.04	
CCO/N=C/c1c(N)ncnc1Nc1ccc2[nH]ccc2c1 [Cpd 17, (5E)-4-amino-6-(1H-indol-5-ylamino)-pyrimidine-5-carbaldehyde O-ethyl-oxime]		0.02	0.6	
Nc1ncnc(Nc2ccc3c(cnn3Cc3cccc(F)c3)c2)c1/C=N/O [Cpd 84, (5E)-4-amino-6-[1-(3-fluoro-benzyl)-1H-indazol-5-ylamino]-pyrimidine-5-carbaldehyde oxime]	4.9			
CO/N=C/c1c(N)ncnc1Nc1ccc2c(c1)CCC2 [Cpd 20]		1.2	14.1	
CO/N=C/c1c(N)ncnc1Nc1ccc(NC(=O)c2ccccc2)cc1 [Cpd 104]	10			
CO/N=C/c1c(N)ncnc1Nc1ccc(OCc2ccccn2)c(Cl)c1 [Cpd 32, (5E)-4-amino-6-[3-chloro-4-(pyridin-2-ylmethoxy)-phenylamino]-pyrimidine-5-carbaldehyde O-methyl-oxime]		0.01	0.09	
CO/N=C/c1c(NOC)ncnc1Nc1ccc(Br)cc1F [Cpd 86]	100			
CCO/N=C/c1c(N)ncnc1Nc1ccc2c(cnn2Cc2ccccc2)c1 [Cpd 49, (5E)-4-amino-6-(1-benzyl-1H-indazol-5-ylamino)-pyrimidine-5-carbaldehyde O-ethyl-oxime]		0.03	0.01	
CCO/N=C/c1c(N)ncnc1Nc1ccc2c(ccn2Cc2cccc(F)c2)c1 [Cpd 33, (5E)-4-amino-6-[1-(3-fluoro-benzyl)-1H-indol-5-ylamino]-pyrimidine-5-carbaldehyde O-ethyl-oxime]		0.02	0.1	
CCO/N=C/c1c(N)ncnc1N[C@@H](C)c1ccccc1 [Cpd 16, (5E)-4-amino-6-[(1S)-1-phenyl-ethylamino]-pyrimidine-5-carbaldehyde O-ethyl-oxime]		0.01	0.01	
CC(C)(C)O/N=C/c1c(N)ncnc1Nc1ccc2c(cnn2Cc2cccc(F)c2)c1 [Cpd 12, (5E)-4-amino-6-[1-(3-fluoro-benzyl)-1H-indazol-5-ylamino]-pyrimidine-5-carbaldehyde O-tert-butyl-oxime]		0.04	0.05	
Nc1ncnc(Nc2ccc(Oc3ccccc3)cc2)c1/C=N/OCCN1CCOCC1 [Cpd 109]	100			
CON=Cc1c(N)ncnc1NCc1ccc(Oc2ccccc2)cc1 [Cpd 123, 4-amino-6-(4-phenoxy-benzylamino)-pyrimidine-5-carbaldehyde O-methyl-oxime]			> 100	inhibition at 2 µM (EGFR): 7%
CCO/N=C/c1c(N)ncnc1Nc1ccc(OCc2cccc(F)c2)c(Cl)c1 [Cpd 18, (5E)-4-amino-6-[3-chloro-4-(3-fluoro-benzyloxy)-phenylamino)-pyrimidine-5-carbaldehyde O-ethyl-oxime]		0.03	0.04	
Nc1ncnc(Nc2ccc(Oc3ccccc3)cc2)c1/C=N/O [Cpd 111, (5E)-4-amino-6-(4-phenoxy-phenylamino)-pyrimidine-5-carbaldehyde oxime]		0.1	0.3	
CO/N=C/c1c(N)ncnc1Nc1ccc2nn(Cc3cccc(F)c3)cc2c1 [Cpd 5]		0.5	3.7	
CO/N=C/c1c(N)ncnc1Nc1ccc(Oc2ccccc2)c(OC)c1 [Cpd 7, (5E)-4-amino-6-(3-methoxy-4-phenoxy-phenylamino)-pyrimidine-5-carbaldehyde O-methyl-oxime]		0.05	0.1	
